{"source": "patent US12178800B2", "about": "“Sulforaphane-melatonin-like compound” (priority 2018, dated 2024)", "key": {"ICR mice": {"system": "ICR mice", "assay": "X-ray-induced oral mucositis in mice: survival and behaviour", "type": "in vivo", "procedure": "In a second example for illustrating embodiments of the present invention, six-week-old ICR mice (30-40 g) obtained from Institute of Animal Breeding and Genetics, University of Gottingen, Germany were used. The animals were housed in a room maintained at 22±2° C. under a 12-h light-dark cycle with lights on at 7:00 a.m. Mice were fed a standard rodent diet and had free access to water. In addition, no antibiotic supplements were used. All animal experiments were performed in compliance to The German Animal Welfare Act. The mice (n=20 per group) were anesthetized (pentobarbital sodium, 50 mg/kg body weight, i.p.) and then irradiated. Mice had to be irradiated only at the tip of the tongue, so the rest of the body was shielded with a lead device (thickness, 0.5 mm). The tongue was fixed to the outer surface of the lead device using adhesive tape and irradiated with a single radiation dose of 20 Gy. Radiation was generated using a 150 kV potential (20 mA) X-ray source at a focal distance of 350 mm and beam-hardened by a 1.0-mm aluminum filtration system (MBR-1520R-3; Hitachi, Tokyo, Japan). The dose rate was 5.1 Gy/min. The 6OHM-6-HITC compound was dissolved in a small volume of 1 M NaOH solution. The pH was adjusted to 7 with 1 M HCL. […] The body weight was recorded and the tongues were observed daily after irradiation. […]"}, "mouse tongues": {"system": "mouse tongues", "assay": "X-ray-induced oral mucositis in mice: oral mucositis score", "type": "in vivo, ICR mice", "procedure": "In a second example for illustrating embodiments of the present invention, six-week-old ICR mice (30-40 g) obtained from Institute of Animal Breeding and Genetics, University of Gottingen, Germany were used. The animals were housed in a room maintained at 22±2° C. under a 12-h light-dark cycle with lights on at 7:00 a.m. Mice were fed a standard rodent diet and had free access to water. In addition, no antibiotic supplements were used. All animal experiments were performed in compliance to The German Animal Welfare Act. The mice (n=20 per group) were anesthetized (pentobarbital sodium, 50 mg/kg body weight, i.p.) and then irradiated. Mice had to be irradiated only at the tip of the tongue, so the rest of the body was shielded with a lead device (thickness, 0.5 mm). The tongue was fixed to the outer surface of the lead device using adhesive tape and irradiated with a single radiation dose of 20 Gy. Radiation was generated using a 150 kV potential (20 mA) X-ray source at a focal distance of 350 mm and beam-hardened by a 1.0-mm aluminum filtration system (MBR-1520R-3; Hitachi, Tokyo, Japan). The dose rate was 5.1 Gy/min. The 6OHM-6-HITC compound was dissolved in a small volume of 1 M NaOH solution. The pH was adjusted to 7 with 1 M HCL. The concentration was adjusted to 3 mg/mL or 15 mg/mL in 0.9% (physiologic) saline solution. The body weight was recorded and the tongues were observed daily after irradiation. 6OHM-6-HITC was injected via the intraperitoneal route 30 min before irradiation. The control group was irradiated but without administering the 6OHM-6-HITC compound.\nThe scoring of oral mucositis was based on a modification of the method of Sonis et al. To assess the severity of oral mucositis, mice were anesthetized with isoflurane every day. The oral mucositis score was: 0=normal; 1=partial hyperemia, erythema and swelling; 2=overall hyperemia, erythema and swelling; 3=epidermolysis, hyperemia and erythema; 4=extensive epidermolysis and bleeding; 5=bleeding and abscesses. Myeloperoxidase (MPO) activity is a marker for neutrophils in inflamed tissue. MPO activity was measured in mouse tongues using a modification of the method of Chen et al. After mice had been killed by cervical dislocation 12 days after irradiation, tongue samples (n=10 per group) were removed and stored at −70° C. until required for assay. […] MPO activity was measured using a Microplate Reader (NJ-2300; Biotec, Tokyo, Japan) at 450 nm. MPO activity was calculated by measuring the slope of absorbance calibrated using MPO standards (Wako Biochemicals) and expressed as MPO/g tongue. […] TBARS levels were measured using the Microplate Reader (Biotec) at 540 nm. TBARS levels were calculated by measuring the slope of absorbance calibrated using TBARS standards and expressed as TBARS/g tongue. […]"}}}
{"smiles": "COc1cc2c(CCCCN=C=S)c[nH]c2cc1O", "note": "[6OHM-6-HITC]", "values": [{"measurement": "behavioral disorders", "setting": "ICR mice; 300 mg/kg i.p.", "value": "not observed"}, {"measurement": "survival after X-ray irradiation", "setting": "ICR mice; 30 and 300 mg/kg i.p. 30 min before 20 Gy irradiation of the tongue", "value": "significant difference in survival was not found"}, {"measurement": "total oral mucositis score between day-0 and day-12 vs. control group", "setting": "mouse tongues; 30 mg/kg i.p.", "value": "significantly lower"}, {"measurement": "total oral mucositis score between day-0 and day-12 vs. control group", "setting": "mouse tongues; 300 mg/kg i.p.", "value": "significantly lower"}, {"measurement": "oral mucositis score vs. control group", "setting": "mouse tongues; 300 mg/kg i.p., day-10", "value": "significantly lower"}, {"measurement": "oral mucositis score vs. control group", "setting": "mouse tongues; 300 mg/kg i.p., day-12", "value": "significantly lower"}]}
